Molecules are shown by their SMILES.

In this test the test system is organophosphorous agent resistant two-spotted spider mites. Briefly: Effect on Two-spotted Spider Mite (spray on kidney bean leaves). It is filed as in vivo. To be noted: 125 ppm, water dispersible powder of Formulation Example 1 sprayed, 17 female adults, 25° C., 65% humidity, 3 days. The source says: Effect on Two-spotted Spider Mite
17 female adults of organophosphorous agent resistant two-spotted spider mites were inoculated onto the first leaves of kidney beans seeded onto 3.5 inch pots and germinated 7 to 10 days before, onto which each of liquid agents, diluted with water so as to adjust the respective concentration of the chemical compounds to 125 ppm according to the formulation of the water dispersible powder shown in the aforementioned Formulation Example 1, was sprayed. After they were left in a thermostatic chamber at 25° C. in 65% humidity for 3 days, the rate of killed adults was investigated. The examination was repeated twice. As the results, the following chemical compounds killed 100% of the adults.
Take `C=CCOc1cc(C(F)(F)F)ccc1OC1CC2CCC(C1)N2c1ccc(C(F)(F)F)cn1` (centres unmarked) [2-141]: the “rate of killed adults” value came out at 100%.
Next, `CC=NOc1cc(C(F)(F)F)ccc1OC1CC2CCC(C1)N2c1ccc(C(F)(F)F)cn1` (mixture of isomers) [2-213]: 100%; `COCOCc1cc(O[C@@H]2[C@@H]3CC[C@H]2CN(c2ccc(C(F)(F)F)cn2)C3)ccc1C(F)(F)F` [5-70]: 100%; `CC(C)C(C)OC(=O)c1cc(C(F)(F)F)ccc1OC1CC2CCC(C1)N2c1ccc(C(F)(F)F)cn1` (centres unmarked) [2-232]: 100%.
Regarding `O=C(OC1CCOC1)c1cc(C(F)(F)F)ccc1OC1CC2CCC(C1)N2c1ccc(C(F)(F)F)cn1` (centres unmarked) [2-225], the “rate of killed adults” value came to 100%.
For `FC(F)(F)c1ccc(N2CCC(Oc3c(Cl)cc(C(F)(F)F)cc3Cl)CC2)nc1` [1-16], the “rate of killed adults” value was 100%.
As to `FC(F)(F)c1ccc(N2C3CCC2CC(Oc2ccc(C(F)(F)F)cc2OCC2CC2)C3)nc1` (centres unmarked) [2-105], the “rate of killed adults” value was found to be 100%.
Take `CCCCOCc1cc(C(F)(F)F)ccc1OC1C2CCC1CN(c1ccc(C(F)(F)F)cn1)C2` (centres unmarked) [5-223]: the “rate of killed adults” value was determined as 100%.
On to `CCOC(C)COc1cc(C(F)(F)F)ccc1OC1CC2CCC(C1)N2c1ccc(C(F)(F)F)cn1` (centres unmarked) [2-175], for which the “rate of killed adults” value worked out at 100%.
For the molecule `CC(=O)OC(C)COc1cc(C(F)(F)F)ccc1O[C@@H]1[C@@H]2CC[C@H]1CN(c1ccc(C(F)(F)F)cn1)C2` (some centres unmarked) [5-114], the “rate of killed adults” value is reported as 100%.
As to `CCC(Cl)c1cc(C(F)(F)F)ccc1OC1CCN(c2ccc(C(F)(F)F)cn2)CC1` (centres unmarked) [1-82], the “rate of killed adults” value turned out to be 100%.
For `C=CC(C)OC(=O)c1cc(C(F)(F)F)ccc1OC1CC2CCC(C1)N2c1ccc(C(F)(F)F)cn1` (centres unmarked) [2-235], the “rate of killed adults” value turned out to be 100%.
For the molecule `FC(F)(F)c1ccc(N2CCC(Oc3cccc(C(F)(F)F)c3)CC2)nc1` [1-76], the “rate of killed adults” value worked out at 100%.
Take `CC(C)(C)OC(=O)c1cc(C(F)(F)F)ccc1OC1CC2CCC(C1)N2c1ccc(C(F)(F)F)cn1` (centres unmarked) [2-198]: the “rate of killed adults” value came to 100%.
Regarding `CCOc1cc(C(F)(F)F)ccc1OC1CCN(c2ccc(Cl)cn2)CC1` [1-90], the “rate of killed adults” value came out at 100%.
Take `CC(O)COc1cc(C(F)(F)F)ccc1OC1C2CCC1CN(c1ccc(C(F)(F)F)cn1)C2` (centres unmarked) [5-127]: the “rate of killed adults” value is 100%.
Take `CC(C)(C)C(=O)Oc1cc(C(F)(F)F)ccc1OC1CC2CCC(C1)N2c1ccc(C(F)(F)F)cn1` (centres unmarked) [2-150]: the “rate of killed adults” value was determined as 100%.
For `FC(F)(F)c1ccc(O[C@@H]2[C@@H]3CC[C@H]2CN(c2ccc(C(F)(F)F)cn2)C3)cc1` [5-264], the “rate of killed adults” value is listed as 100%.
To `CC(COc1cc(C(F)(F)F)ccc1OC1C2CCC1CN(c1ccc(C(F)(F)F)cn1)C2)=NO` (centres unmarked) [5-182] belongs 100%; to `COC(C)COc1cc(C(F)(F)F)ccc1OC1CC2CCC(C1)[N+]2([O-])c1ccc(C(F)(F)F)cn1` (centres unmarked) [2-174], 100%.
For `COc1cc(C(F)(F)F)ccc1OC1CC2CCC(C1)N2c1ccc(C(F)(F)F)cn1` (stereo not drawn) [2-77, 3α-[2-methoxy-4-(trifluoromethyl)phenoxy]-8-[5-(trifluoromethyl)-2-pyridyl]-8-azabicyclo[3.2.1]octane], the “rate of killed adults” value was 100%.
Take `CCCNc1cc(C(F)(F)F)ccc1OC1CC2CCC(C1)N2c1ccc(C(F)(F)F)cn1` (centres unmarked) [2-160]: the “rate of killed adults” value was found to be 100%.
Turning to `OCCOc1cc(C(F)(F)F)ccc1OC1CCN(c2ccc(C(F)(F)F)cn2)CC1` [1-118], the “rate of killed adults” value is 100%.
Consider `CC(C)=CCOc1cc(C(F)(F)F)ccc1OC1C2CCC1CN(c1ccc(C(F)(F)F)cn1)C2` (centres unmarked) [5-139], for which the “rate of killed adults” value is recorded as 100%.
As to `COCCCc1cc(C(F)(F)F)ccc1OC1CC2CCC(C1)N2c1ccc(C(F)(F)F)cn1` (centres unmarked) [2-190], the “rate of killed adults” value is listed as 100%.
For `COC=Cc1cc(C(F)(F)F)ccc1O[C@@H]1[C@@H]2CC[C@H]1CN(c1ccc(C(F)(F)F)cn1)C2` [5-247], the “rate of killed adults” value was determined as 100%.
Regarding `CCC=Cc1cc(C(F)(F)F)ccc1OC1CC2CCC(C1)N2c1ccc(C(F)(F)F)cn1` (stereo not drawn) [2-186, 3α-[2-(buten-1-yl)-4-(trifluoromethyl)phenoxy]-8-[5-(trifluoromethyl)-2-pyridyl]-8-azabicyclo[3.2.1]octane], the “rate of killed adults” value is on record as 100%.
For the molecule `FC(F)(F)c1ccc(N2C3CCC2CC(Oc2ccc(C(F)(F)F)cc2OC2CCOC2)C3)nc1` (centres unmarked) [2-179], the “rate of killed adults” value came out at 100%.
With `FC(F)(F)c1ccc(N2CC3CCC(C2)C3Oc2ccc(C(F)(F)F)cc2OCC2CCCO2)nc1` (centres unmarked) [5-204], the “rate of killed adults” value is recorded as 100%.
For the molecule `C#CCOc1cc(C(F)(F)F)ccc1OC1CCN(c2ccc(C(F)(F)F)cn2)CC1` [1-163], the “rate of killed adults” value is 100%.
Consider `CCON=Cc1cc(C(F)(F)F)ccc1OC1CC2CCC(C1)N2c1ccc(C(F)(F)F)cn1` (centres unmarked) [2-203], for which the “rate of killed adults” value amounted to 100%.
`C#CCOc1cc(C(F)(F)F)ccc1OC1CC2CCC(C1)N2c1ccc(C(F)(F)F)cn1` (centres unmarked) [2-143]: the “rate of killed adults” value was determined as 100%.
Next, `CCCN(C)c1cc(C(F)(F)F)ccc1OC1CC2CCC(C1)N2c1ccc(C(F)(F)F)cn1` (centres unmarked) [2-161]: 100%.
Regarding `FC(F)(F)c1ccc(N2CCC(Oc3ccc(C(F)(F)F)cc3CCl)CC2)nc1` [1-81], the “rate of killed adults” value is 100%.
As for `CC(COc1cc(C(F)(F)F)ccc1OC1C2CCC1CN(c1ccc(C(F)(F)F)cn1)C2)=NO` (centres unmarked) [5-183], the “rate of killed adults” value is 100%.
Turning to `Cc1cc(C)c(OC2CCN(c3ccc(C(F)(F)F)cn3)CC2)c(C)c1` [1-47], the “rate of killed adults” value is on record as 100%.
Regarding `CC(C)=NOc1cc(C(F)(F)F)ccc1OC1CC2CCC(C1)N2c1ccc(C(F)(F)F)cn1` (stereo not drawn) [2-212, 3α-[2-isopropylideneaminoxy-4-(trifluoromethyl)phenoxy]-8-[5-(trifluoromethyl)-2-pyridyl]-8-azabicyclo[3.2.1]octane], the “rate of killed adults” value came out at 100%.
On to `CCCOc1cc(C(F)(F)F)ccc1OC1CC2CCC(C1)N2c1ccc(Br)cn1` (centres unmarked) [2-86], for which the “rate of killed adults” value was 100%.
As to `FC(F)(F)c1ccc(N2CC3CCC(C2)C3Oc2ccc(C(F)(F)F)cc2COC2CCOC2)nc1` (centres unmarked) [5-231], the “rate of killed adults” value is given as 100%.
As for `Cc1coc(-c2cc(C(F)(F)F)ccc2OC2CC3CCC(C2)N3c2ccc(C(F)(F)F)cn2)n1` (centres unmarked) [2-209], the “rate of killed adults” value was found to be 100%.
Next, `FC(F)(F)c1ccc(N2CCC(Oc3ccc(C(F)(F)F)cc3OCCBr)CC2)nc1` [1-139]: 100%.
With `C=C=COc1cc(C(F)(F)F)ccc1OC1CCN(c2ccc(C(F)(F)F)cn2)CC1` [1-143], the “rate of killed adults” value came to 100%.
Turning to `CCC(C)C(O)c1cc(C(F)(F)F)ccc1OC1CC2CCC(C1)N2c1ccc(C(F)(F)F)cn1` (centres unmarked) [2-194], the “rate of killed adults” value is 100%.
Next, `FC(F)(F)c1ccc(N2CC3CCC(C2)C3Oc2ccc(C(F)(F)F)cc2OCc2ccsc2)nc1` (centres unmarked) [5-208]: 100%.
In the case of `CCC(O)c1cc(C(F)(F)F)ccc1OC1CCN(c2ccc(C(F)(F)F)cn2)CC1` (centres unmarked) [1-67], the “rate of killed adults” value was found to be 100%.
`CCCCc1cc(C(F)(F)F)ccc1O[C@H]1C[C@H]2CC[C@@H](C1)N2c1ccc(C(F)(F)F)cn1` [2-187, 3α-[2-butyl-4-(trifluoromethyl)phenoxy]-8-[5-(trifluoromethyl)-2-pyridyl]-8-azabicyclo[3.2.1]octane]: the “rate of killed adults” value came out at 100%.
To `COCCOC(=O)c1cc(C(F)(F)F)ccc1OC1CC2CCC(C1)N2c1ccc(C(F)(F)F)cn1` (centres unmarked) [2-230] belongs 100%; to `FC(F)(F)c1ccc(N2CC3CCC(C2)C3Oc2ccc(C(F)(F)F)cc2OCc2ccco2)nc1` (centres unmarked) [5-206], 100%; to `CCCOC(=O)c1cc(C(F)(F)F)ccc1O[C@@H]1[C@@H]2CC[C@H]1CN(c1ccc(C(F)(F)F)cn1)C2` [5-244], 100%.
Take `CCCOc1cc(C(F)(F)F)cc(Cl)c1OC1CCN(c2ccc(C(F)(F)F)cn2)CC1` [1-18]: the “rate of killed adults” value came out at 100%.
As to `Cc1cc(F)ccc1OC1CCN(c2ccc(C(F)(F)F)cn2)CC1` [1-48], the “rate of killed adults” value turned out to be 100%.
With `CCCN(CCC)c1cc(C(F)(F)F)ccc1OC1CC2CCC(C1)N2c1ccc(C(F)(F)F)cn1` (centres unmarked) [2-159], the “rate of killed adults” value is recorded as 100%.
As for `CCCOc1cc(C#N)ccc1OC1CC2CCC(C1)N2c1ccc(C(F)(F)F)cn1` (centres unmarked) [2-81], the “rate of killed adults” value came to 100%.
For `COCOCCOc1cc(C(F)(F)F)ccc1OC1CCN(c2ccc(C(F)(F)F)cn2)CC1` [1-117], the “rate of killed adults” value was 100%.
Consider `COc1cc(C(F)(F)F)ccc1O[C@@H]1[C@@H]2CC[C@H]1CN(c1ccc(C(F)(F)F)cn1)C2` [5-89], for which the “rate of killed adults” value was 100%.
As for `CCCOc1cc(C(F)(F)F)ccc1OC1CC2CCC(C1)N2c1ccc(C#N)cn1` (centres unmarked) [2-93], the “rate of killed adults” value is 100%.
Take `C=CC(C)OC(=O)c1cc(C(F)(F)F)ccc1OC1CC2CCC(C1)[N+]2([O-])c1ccc(C(F)(F)F)cn1` (centres unmarked) [2-247]: the “rate of killed adults” value is listed as 100%.
To `CCC(C)Oc1cc(C(F)(F)F)ccc1OC1CC2CCC(C1)N2c1ccc(C(F)(F)F)cn1` (centres unmarked) [2-177] belongs 100%.
`FC(F)(F)c1ccc(N2CC3CCC(C2)C3Oc2ccc(C(F)(F)F)cc2C2CC=CO2)nc1` (centres unmarked) [5-235]: the “rate of killed adults” value is listed as 100%.

For the origin of these results see patent US8101768B2, “Cyclic amine compound and pest control agent” (Nippon Soda Co., Ltd., priority 2004, dated 2012).
